{
  "source": "patent US20240425478A1",
  "about": "“CYCLOPENTYLPYRAZOLE CDK2 INHIBITORS” (Genentech, Inc., priority 2021, published 2024)",
  "key": {"[1]": {"target": "T1, Cyclin Dependent Kinase 1/Cyclin A2 (CDK1-cycA2) (Homo sapiens, UniProt P06493)", "T1 construct": "purchased ProQinase 0134-0054-1", "T1 sequence (P06493 whole entry)": "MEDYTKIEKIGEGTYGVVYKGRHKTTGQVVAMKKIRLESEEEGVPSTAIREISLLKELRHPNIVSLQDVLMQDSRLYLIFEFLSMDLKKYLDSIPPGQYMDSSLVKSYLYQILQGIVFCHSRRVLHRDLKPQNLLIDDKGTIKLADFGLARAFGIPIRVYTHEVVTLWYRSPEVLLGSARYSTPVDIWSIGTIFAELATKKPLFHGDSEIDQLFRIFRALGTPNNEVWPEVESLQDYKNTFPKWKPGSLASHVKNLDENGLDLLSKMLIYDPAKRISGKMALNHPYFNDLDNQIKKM", "T1 sequence (P20248 whole entry partner)": "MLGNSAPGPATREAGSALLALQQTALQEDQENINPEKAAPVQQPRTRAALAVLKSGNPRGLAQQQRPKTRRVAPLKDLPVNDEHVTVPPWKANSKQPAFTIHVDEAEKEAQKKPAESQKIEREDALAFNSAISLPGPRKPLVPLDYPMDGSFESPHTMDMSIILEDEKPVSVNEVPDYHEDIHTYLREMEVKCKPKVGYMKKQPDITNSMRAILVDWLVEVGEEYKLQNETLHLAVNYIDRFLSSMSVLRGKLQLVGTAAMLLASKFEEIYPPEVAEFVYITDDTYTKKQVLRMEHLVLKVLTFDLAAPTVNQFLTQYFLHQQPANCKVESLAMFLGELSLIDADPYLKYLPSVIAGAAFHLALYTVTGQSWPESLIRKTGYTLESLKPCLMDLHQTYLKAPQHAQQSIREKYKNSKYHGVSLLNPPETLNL", "assay": "CDK1-cycA2 TR-FRET (Lance) enzyme assay", "assay_type": "biochemical", "conditions": "for Ki: enzymatic assay", "in_short": "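Human CDK1/cyclin A2 pre-incubated 30 min with compound dose responses in 50 mM HEPES pH 7.5, 10 mM MgCl2, 2 mM TCEP, 0.05% BGG, 0.01% Brij 35. Reaction quenched with EDTA (15 mM final); TR-FRET readout using Eu-anti-phospho-4E-BP1, acceptor/donor ratio. Inhibition constants from Morrison equation.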"}, "[2]": {"target": "T2, Cyclin Dependent Kinase 2/Cyclin E1 (CDK2-cycE1) (Homo sapiens, UniProt P24941)", "T2 construct": "purchased ProQinase 0050-0055-1", "assay": "CDK2-cycE1 TR-FRET (LANCE) enzyme assay;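 on improvement in potency against CDK2 (Ki) over Comparator C: fold lower CDK2 Ki than comparator c (Ki 0.032 µM)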", "assay_type": "biochemical", "conditions": "for FS CDK1/CDK2 / FS CDK4/CDK2: fold selectivity", "in_short": "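Compound dose responses pre-incubated 30 min with CDK2-cycE1 in 50 mM HEPES pH 7.5, 10 mM MgCl2, 2 mM TCEP, 0.05% BGG, 0.01% Brij 35. Reaction quenched with EDTA (15 mM final), phospho-MBP detected by Eu-anti-phospho-MBP TR-FRET (acceptor/donor ratio). Inhibition constants from Morrison equation.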"}, "HCT116 cells": {"tested_on": "HCT116 cells", "assay": "p-H3 HCT-116 mitotic release cell proliferation assay (cellular CDK1)", "assay_type": "cell-based", "conditions": "for IC50: Homo sapiens, HCT-116, cellular assay, read-out: CDK1 p-H3 IC50", "in_short": "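HCT116 cells arrested 16 h with 500 nM nocodazole, then exposed to compound for 4 h at 37 °C (0.1% DMSO). Lysates read by HTRF/FRET with donor and acceptor phospho-Histone H3 (Ser10) antibodies, ≥2 h at room temperature; CDK1 inhibition seen as loss of p-H3 on mitotic release.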"}, "SKOV-3 (ATCC HTB-77)": {"tested_on": "SKOV-3 (ATCC HTB-77)", "assay": "SKOV-3 EdU incorporation cell proliferation assay (CDK4/6-dependent)", "assay_type": "cell-based", "conditions": "for IC50: Homo sapiens, cellular assay, read-out: CDK4/6 SKOV-3 IC50", "in_short": "(§1)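 Cells in RPMI/10% FBS dosed with compound (0.5% DMSO final) for 16 h at 37 °C, 5% CO2, then EdU 0.5 μM final for 8 h before fixation and imaging. IC50 from 4-parameter logistic fit of EdU-positive cell fraction versus dose.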"}, "[3]": {"tested_on": "OVISE (JCRB1043, CCNE1-amplified)", "assay": "OVISE EdU incorporation cell proliferation assay (CDK2-dependent)", "assay_type": "cell-based", "conditions": "for IC50: cellular assay, read-out: CDK2 OVISE IC50; for FS SKOV-3/OVISE / FS p-H3/OVISE: fold selectivity; for FS p-H3/OVISE: cellular p-H3 IC50 over OVISE IC50", "in_short": "as §1"}, "[4]": {"target": "T3, Cyclin Dependent Kinase 4/Cyclin D3 (CDK4-cycD3) (Homo sapiens, UniProt P11802)", "T3 construct": "purchased Carna Biosciences 04-105", "T3 sequence (P11802 whole entry)": "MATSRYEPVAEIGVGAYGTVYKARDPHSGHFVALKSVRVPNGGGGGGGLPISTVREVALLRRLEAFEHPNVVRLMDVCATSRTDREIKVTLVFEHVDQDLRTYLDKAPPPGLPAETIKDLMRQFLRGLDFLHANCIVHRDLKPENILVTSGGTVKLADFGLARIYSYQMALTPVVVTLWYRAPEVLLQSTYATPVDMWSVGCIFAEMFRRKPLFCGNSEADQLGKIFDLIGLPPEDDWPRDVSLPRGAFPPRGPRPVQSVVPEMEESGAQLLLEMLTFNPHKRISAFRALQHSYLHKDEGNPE", "T3 sequence (P30281 whole entry partner)": "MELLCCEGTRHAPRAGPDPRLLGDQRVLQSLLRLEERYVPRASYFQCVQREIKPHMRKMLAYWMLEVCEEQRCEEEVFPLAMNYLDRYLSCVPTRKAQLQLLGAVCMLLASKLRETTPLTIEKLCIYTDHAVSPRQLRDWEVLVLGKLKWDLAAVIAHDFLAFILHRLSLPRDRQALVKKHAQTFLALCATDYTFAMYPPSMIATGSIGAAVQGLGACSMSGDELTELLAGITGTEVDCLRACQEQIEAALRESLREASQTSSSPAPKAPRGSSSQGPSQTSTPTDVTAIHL", "assay": "CDK4-cycD3 TR-FRET (LANCE) enzyme assay", "assay_type": "biochemical", "conditions": "for Ki: enzymatic assay", "in_short": "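Compound dose responses pre-incubated 30 min with enzyme mix in 50 mM HEPES pH 7.5, 10 mM MgCl2, 2 mM TCEP, 0.05% BGG, 0.01% Brij 35. Reaction quenched with EDTA (15 mM final); Eu-anti-phospho-4E-BP1 TR-FRET detection, acceptor/donor ratio. Ki derived by Morrison equation.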"}, "[5]": {"conditions": "Table O, enzymatic assay, read-out: CDK2 Ki"}, "[6]": {"conditions": "Table O, enzymatic CDK1 Ki over CDK2 Ki"}, "[7]": {"conditions": "Table O, enzymatic CDK4 Ki over CDK2 Ki"}, "[8]": {"conditions": "Table O, cellular SKOV-3 IC50 over OVISE IC50"}, "[9]": {"conditions": "fold selectivity, enzymatic Ki ratio, Table P"}},
  "note": "Where two headings read alike, the source gives them in different places.",
  "data": [
    {"molecule": "CC(C)NC(=O)O[C@@H]1CC[C@H](c2cc(Nc3cncnc3)n[nH]2)C1", "note": "[Example 2B, (1R,3S)-3-(3-(pyrimidin-5-ylamino)-1H-pyrazol-5-yl)cyclopentyl isopropylcarbamate]", "values": [
      {"measurement": "Ki", "setting": "[1]; Table O", "result": 160, "unit": "nM"},
      {"measurement": "improvement in potency against CDK2 (Ki) over Comparator C", "setting": "[2]", "result": 9, "unit": "fold"},
      {"measurement": "Ki", "setting": "[2]; [5]", "result": 3.4, "unit": "nM"},
      {"measurement": "FS CDK1/CDK2", "setting": "[2]; [6]", "result": 47},
      {"measurement": "FS CDK4/CDK2", "setting": "[2]; [7]", "result": 120},
      {"measurement": "increased fold-selectivity CDK1/CDK2 over Comparator C", "setting": "[2]; Table Q, (+) sign after FS CDK1/CDK2", "result": "(+) (The (+) sign in Table Q signifies desirable increased fold-selectivity of the exemplary compounds over Comparator C)"},
      {"measurement": "increased fold-selectivity CDK4/CDK2 over Comparator C", "setting": "[2]; Table Q, (+) sign after FS CDK4/CDK2", "result": "(+) (The (+) sign in Table Q signifies desirable increased fold-selectivity of the exemplary compounds over Comparator C)"},
      {"measurement": "Ki", "setting": "[2]; Table Q, enzymatic assay, read-out: CDK2 Ki", "result": 3.4, "unit": "nM"},
      {"measurement": "FS CDK1/CDK2", "setting": "[2]; Table Q, enzymatic", "result": 47},
      {"measurement": "FS CDK4/CDK2", "setting": "[2]; Table Q, enzymatic", "result": 120},
      {"measurement": "IC50", "setting": "HCT116 cells; Table O", "result": 2900, "unit": "nM"},
      {"measurement": "IC50", "setting": "SKOV-3 (ATCC HTB-77); SK-OV-3, Table O", "result": "> 20000", "unit": "nM"},
      {"measurement": "IC50", "setting": "SKOV-3 (ATCC HTB-77); SK-OV-3, Table Q", "result": "> 20000", "unit": "nM"},
      {"measurement": "IC50", "setting": "[3]; Table O", "result": 230, "unit": "nM"},
      {"measurement": "FS SKOV-3/OVISE", "setting": "[3]; [8]", "result": ">70"},
      {"measurement": "FS p-H3/OVISE", "setting": "[3]; Table O", "result": 1.1},
      {"measurement": "increased fold-selectivity SKOV-3/OVISE over Comparator C", "setting": "[3]; Table Q, (+) sign after FS SKOV-3/OVISE", "result": "(+) (The (+) sign in Table Q signifies desirable increased fold-selectivity of the exemplary compounds over Comparator C)"},
      {"measurement": "FS SKOV-3/OVISE", "setting": "[3]; Table Q, cellular", "result": "> 70"},
      {"measurement": "improvement in CDK2 OVISE cell potency over Comparator C", "setting": "[3]; Table Q, in brackets after OVISE IC50, Comparator C 5.5 μM", "result": 24, "unit": "fold"},
      {"measurement": "Ki", "setting": "[4]; Table O", "result": 390, "unit": "nM"}
    ]},
    {"molecule": "Cc1nc(C#N)ccc1Nc1cc([C@H]2CC[C@@H](OC(=O)NC(C)(C)C)C2)[nH]n1", "note": "[Example 10D, (1R,3S)-3-(3-((6-cyano-2-methylpyridin-3-yl)amino)-1H-pyrazol-5-yl)cyclopentyl tert-butylcarbamate]", "values": [
      {"measurement": "Ki", "setting": "[1]; Table O", "result": 59, "unit": "nM"},
      {"measurement": "Ki", "setting": "[2]; [5]", "result": 0.44, "unit": "nM"},
      {"measurement": "FS CDK1/CDK2", "setting": "[2]; [6]", "result": 134},
      {"measurement": "FS CDK4/CDK2", "setting": "[2]; [7]", "result": 195},
      {"measurement": "IC50", "setting": "HCT116 cells; Table O", "result": 97, "unit": "nM"},
      {"measurement": "IC50", "setting": "SKOV-3 (ATCC HTB-77); SK-OV-3, Table O", "result": 2800, "unit": "nM"},
      {"measurement": "IC50", "setting": "[3]; Table O", "result": 46, "unit": "nM"},
      {"measurement": "FS SKOV-3/OVISE", "setting": "[3]; [8]", "result": 61},
      {"measurement": "FS p-H3/OVISE", "setting": "[3]; Table O", "result": 2.1},
      {"measurement": "Ki", "setting": "[4]; Table O", "result": 86, "unit": "nM"}
    ]},
    {"molecule": "CC(C)(C)NC(=O)O[C@@H]1CC[C@H](c2cc(NC(=O)c3ccnnc3)n[nH]2)C1", "note": "[Comparator B, reference compound]", "values": [
      {"measurement": "Ki", "setting": "[1]; Table P", "result": 32, "unit": "nM"},
      {"measurement": "FS CDK1/CDK2", "setting": "[1]; [9]", "result": 32},
      {"measurement": "Ki", "setting": "[2]; read-out: CDK2 activity / potency (enzymatic assay)", "result": 1, "unit": "nM"},
      {"measurement": "pH3/OVISE fold selectivity (CDK1 over CDK2, cellular assay data)", "setting": "HCT116 cells", "result": 0.31, "unit": "fold"},
      {"measurement": "IC50", "setting": "HCT116 cells; Table P", "result": 43, "unit": "nM"},
      {"measurement": "FS p-H3/OVISE", "setting": "HCT116 cells; fold selectivity, cellular IC50 ratio (CDK1 over CDK2), Table P", "result": 0.31},
      {"measurement": "IC50", "setting": "SKOV-3 (ATCC HTB-77); SK-OV-3, Table P", "result": 6700, "unit": "nM"},
      {"measurement": "FS SKOV-3/OVISE", "setting": "SKOV-3 (ATCC HTB-77); fold selectivity, cellular IC50 ratio (CDK4/6 over CDK2), Table P", "result": 48},
      {"measurement": "IC50", "setting": "[3]; Table P", "result": 140, "unit": "nM"},
      {"measurement": "Ki", "setting": "[4]; Table P", "result": 250, "unit": "nM"},
      {"measurement": "FS CDK4/CDK2", "setting": "[4]; [9]", "result": 250}
    ]}
  ]
}
